Reference: ChEMBL document CHEMBL3272261, “Aminobenzioc acid diuretics. 8.(2) 3, 4-Disubstituted 5-methylsulfonylbenzioc acids and related compounds” (1976)
Active and inactive are the calls of the source. The rule behind the calls is not given here.

Legend:
Canis familiaris [1] = assay: Diuretic activity in dog assessed as urine volume measured in water at 0.25 mg/kg, iv after 3 hrs; assay type: functional
Canis familiaris [2] = assay: Saluretic activity in dog assessed as urinary excretion of chloride level at 0.25 mg/kg, po after 3 hrs; assay type: functional, Canis lupus familiaris, Urine
Canis familiaris [3] = assay: Saluretic activity in dog assessed as urinary excretion of potassium level at 0.25 mg/kg, po after 3 hrs; assay type: functional, Canis lupus familiaris, Urine
Canis familiaris [4] = assay: Saluretic activity in dog assessed as urinary excretion of sodium level at 0.25 mg/kg, po after 3 hrs; assay type: functional, Canis lupus familiaris, Urine
Canis familiaris [5] = assay: Diuretic activity in dog assessed as urine volume measured in water at 0.25 mg/kg, po after 3 hrs; assay type: functional, Canis lupus familiaris
Canis familiaris [6] = assay: Diuretic activity in dog assessed as urine volume measured in water at 10 mg/kg, iv after 3 hrs; assay type: functional, organism-based; design: dose 10 mg/kg; conditions: Canis lupus familiaris
Canis familiaris [7] = assay: Saluretic activity in dog assessed as urinary excretion of sodium level at 0.1 mg/kg, iv after 3 hrs; assay type: functional, Canis lupus familiaris, Urine
Canis familiaris [8] = assay: Diuretic activity in dog assessed as urine volume measured in water at 0.01 mg/kg, iv after 3 hrs; assay type: functional, Canis lupus familiaris
Canis familiaris [9] = assay: Saluretic activity in dog assessed as urinary excretion of chloride level at 0.1 mg/kg, iv after 3 hrs; assay type: functional, Canis lupus familiaris, Urine
Canis familiaris [10] = assay: Saluretic activity in dog assessed as urinary excretion of potassium level at 0.1 mg/kg, iv after 3 hrs; assay type: functional, Canis lupus familiaris, Urine
Canis familiaris [11] = assay: Diuretic activity in dog assessed as urine volume measured in water at 0.1 mg/kg, iv after 3 hrs; assay type: functional, Canis lupus familiaris
Canis familiaris [12] = assay: Saluretic activity in dog assessed as urinary excretion of sodium level at 0.01 mg/kg, iv after 3 hrs; assay type: functional, Canis lupus familiaris, Urine
Canis familiaris [13] = assay: Saluretic activity in dog assessed as urinary excretion of potassium level at 0.01 mg/kg, iv after 3 hrs; assay type: functional, Canis lupus familiaris, Urine
Canis familiaris [14] = assay: Saluretic activity in dog assessed as urinary excretion of chloride level at 0.01 mg/kg, iv after 3 hrs; assay type: functional, Canis lupus familiaris, Urine
Canis familiaris [15] = assay: Diuretic activity in dog assessed as urine volume measured in water at 1 mg/kg, iv after 3 hrs; assay type: functional
Canis familiaris [16] = assay: Saluretic activity in dog assessed as urinary excretion of potassium level at 1 mg/kg, iv after 3 hrs; assay type: functional, Canis lupus familiaris, Urine
Canis familiaris [17] = assay: Saluretic activity in dog assessed as urinary excretion of sodium level at 1 mg/kg, iv after 3 hrs; assay type: functional, Canis lupus familiaris, Urine
Canis familiaris [18] = assay: Saluretic activity in dog assessed as urinary excretion of chloride level at 1 mg/kg, iv after 3 hrs; assay type: functional, Canis lupus familiaris, Urine
Canis familiaris [19] = assay: Saluretic activity in dog assessed as urinary excretion of sodium level at 0.25 mg/kg, iv after 3 hrs; assay type: functional, Canis lupus familiaris, Urine
Canis familiaris [20] = assay: Saluretic activity in dog assessed as urinary excretion of potassium level at 0.25 mg/kg, iv after 3 hrs; assay type: functional, Canis lupus familiaris, Urine
Canis familiaris [21] = assay: Saluretic activity in dog assessed as urinary excretion of chloride level at 0.25 mg/kg, iv after 3 hrs; assay type: functional, Canis lupus familiaris, Urine
Canis familiaris [22] = assay: Saluretic activity in dog assessed as urinary excretion of sodium level at 0.1 mg/kg, po after 3 hrs; assay type: functional, Canis lupus familiaris, Urine
Canis familiaris [23] = assay: Saluretic activity in dog assessed as urinary excretion of potassium level at 0.1 mg/kg, po after 3 hrs; assay type: functional, Canis lupus familiaris, Urine
Canis familiaris [24] = assay: Diuretic activity in dog assessed as urine volume measured in water at 0.1 mg/kg, po after 3 hrs; assay type: functional, Canis lupus familiaris
Canis familiaris [25] = assay: Saluretic activity in dog assessed as urinary excretion of chloride level at 0.1 mg/kg, po after 3 hrs; assay type: functional, Canis lupus familiaris, Urine
Canis familiaris [26] = assay: Saluretic activity in dog assessed as urinary excretion of sodium level at 1 mg/kg, po after 3 hrs; assay type: functional, Canis lupus familiaris, Urine
Canis familiaris [27] = assay: Diuretic activity in dog assessed as urine volume measured in water at 1 mg/kg, po after 3 hrs; assay type: functional, Canis lupus familiaris
Canis familiaris [28] = assay: Saluretic activity in dog assessed as urinary excretion of chloride level at 1 mg/kg, po after 3 hrs; assay type: functional, Canis lupus familiaris, Urine
Canis familiaris [29] = assay: Saluretic activity in dog assessed as urinary excretion of potassium level at 1 mg/kg, po after 3 hrs; assay type: functional, Canis lupus familiaris, Urine

Compound: CS(=O)(=O)c1cc(C(=O)O)cc(NCc2ccccc2)c1Nc1ccccc1
- Activity (Canis familiaris [1]; Canis lupus familiaris): inactive

Compound: CCCCNc1cc(C(=O)O)cc(S(C)(=O)=O)c1C(=O)c1ccccc1
- Activity (Canis familiaris [2]): 1.2 milliequivalent/kg
- Activity (Canis familiaris [3]): 0.19 milliequivalent/kg
- Activity (Canis familiaris [4]): 0.9 milliequivalent/kg
- Activity (Canis familiaris [5]): 9 mL/kg

Compound: CS(=O)(=O)c1cc(C(=O)O)c(NCc2ccccc2)cc1Oc1ccccc1
- Activity (Canis familiaris [6]): inactive

Compound: NS(=O)(=O)c1cc(C(=O)O)c(NCc2ccco2)cc1Oc1ccccc1
- Activity (Canis familiaris [7]): 2.9 milliequivalent/kg
- Activity (Canis familiaris [8]): 8 mL/kg
- Activity (Canis familiaris [9]): 3.8 milliequivalent/kg
- Activity (Canis familiaris [10]): 0.45 milliequivalent/kg
- Activity (Canis familiaris [11]): 25 mL/kg
- Activity (Canis familiaris [12]): 0.6 milliequivalent/kg
- Activity (Canis familiaris [13]): 0.27 milliequivalent/kg
- Activity (Canis familiaris [14]): 0.8 milliequivalent/kg

Compound: O=C(O)c1cc(NCc2ccccc2)c2c(c1)S(=O)(=O)C=C2c1ccccc1
- Activity (Canis familiaris [15]; Canis lupus familiaris): inactive

Compound: CCCCNc1cc(C(=O)O)cc2c1C(O)(c1ccccc1)CS2(=O)=O (configuration not stated)
- Activity (Canis familiaris [15]; Canis lupus familiaris): inactive

Compound: O=C(O)c1cc(NCc2ccccc2)c2c(c1)S(=O)(=O)CC2(O)c1ccccc1 (configuration not stated)
- Activity (Canis familiaris [15]; Canis lupus familiaris): inactive

Compound: CS(=O)(=O)c1cc(C(=O)O)cc(NCc2ccccc2)c1Oc1ccccc1
- Activity (Canis familiaris [7]): 1.1 milliequivalent/kg
- Activity (Canis familiaris [16]): 0.98 milliequivalent/kg
- Activity (Canis familiaris [9]): 1.4 milliequivalent/kg
- Activity (Canis familiaris [17]): 4.8 milliequivalent/kg
- Activity (Canis familiaris [18]): 5.1 milliequivalent/kg
- Activity (Canis familiaris [19]): 3 milliequivalent/kg
- Activity (Canis familiaris [15]): 31 mL/kg
- Activity (Canis familiaris [10]): 0.2 milliequivalent/kg
- Activity (Canis familiaris [11]): 9 mL/kg
- Activity (Canis familiaris [1]): 21 mL/kg
- Activity (Canis familiaris [20]): 0.99 milliequivalent/kg
- Activity (Canis familiaris [21]): 3.5 milliequivalent/kg

Compound: CCCCNc1cc(C(=O)O)cc(S(C)(=O)=O)c1Oc1ccccc1
- Activity (Canis familiaris [7]): 0.6 milliequivalent/kg
- Activity (Canis familiaris [16]): 0.22 milliequivalent/kg
- Activity (Canis familiaris [9]): 0.4 milliequivalent/kg
- Activity (Canis familiaris [17]): 2.1 milliequivalent/kg
- Activity (Canis familiaris [18]): 2.7 milliequivalent/kg
- Activity (Canis familiaris [15]): 15 mL/kg
- Activity (Canis familiaris [10]): 0.19 milliequivalent/kg
- Activity (Canis familiaris [11]): 3 mL/kg

Compound: CCCCNc1cc(C(=O)O)cc(S(N)(=O)=O)c1Oc1ccccc1 [BUMETANIDE]
- Activity (Canis familiaris [7]): 2.4 milliequivalent/kg
- Activity (Canis familiaris [8]): 10 mL/kg
- Activity (Canis familiaris [9]): 3.5 milliequivalent/kg
- Activity (Canis familiaris [22]): 3.3 milliequivalent/kg
- Activity (Canis familiaris [23]): 0.49 milliequivalent/kg
- Activity (Canis familiaris [24]): 31 mL/kg
- Activity (Canis familiaris [19]): 4 milliequivalent/kg
- Activity (Canis familiaris [10]): 0.44 milliequivalent/kg
- Activity (Canis familiaris [11]): 26 mL/kg
- Activity (Canis familiaris [12]): 0.92 milliequivalent/kg
- Activity (Canis familiaris [13]): 0.27 milliequivalent/kg
- Activity (Canis familiaris [1]): 39 mL/kg
- Activity (Canis familiaris [25]): 4.5 milliequivalent/kg
- Activity (Canis familiaris [14]): 1.4 milliequivalent/kg
- Activity (Canis familiaris [20]): 0.84 milliequivalent/kg
- Activity (Canis familiaris [21]): 5.7 milliequivalent/kg

Compound: CCCCOc1cc(C(=O)O)cc(S(C)(=O)=O)c1C(=O)c1ccccc1
- Activity (Canis familiaris [26]): 2.6 milliequivalent/kg
- Activity (Canis familiaris [22]): 0.5 milliequivalent/kg
- Activity (Canis familiaris [23]): 0.22 milliequivalent/kg
- Activity (Canis familiaris [24]): 4 mL/kg
- Activity (Canis familiaris [27]): 24 mL/kg
- Activity (Canis familiaris [25]): 0.8 milliequivalent/kg
- Activity (Canis familiaris [28]): 3.4 milliequivalent/kg
- Activity (Canis familiaris [29]): 0.54 milliequivalent/kg

Compound: CCCCSc1cc(C(=O)O)cc(S(C)(=O)=O)c1Oc1ccccc1
- Activity (Canis familiaris [16]): 0.64 milliequivalent/kg
- Activity (Canis familiaris [17]): 3 milliequivalent/kg
- Activity (Canis familiaris [18]): 3.2 milliequivalent/kg
- Activity (Canis familiaris [15]): 21 mL/kg
- Activity (Canis familiaris [11]; Canis lupus familiaris): inactive

Compound: CSc1cc(C(=O)O)cc(NCc2ccccc2)c1Oc1ccccc1
- Activity (Canis familiaris [16]): 0.21 milliequivalent/kg
- Activity (Canis familiaris [17]): 0.6 milliequivalent/kg
- Activity (Canis familiaris [18]): 0.9 milliequivalent/kg
- Activity (Canis familiaris [15]): 7 mL/kg

Compound: CS(=O)(=O)c1cc(C(=O)O)c(NCc2ccccc2)cc1Sc1ccccc1
- Activity (Canis familiaris [6]): inactive

Compound: CS(=O)(=O)c1cc(C(=O)O)c(NCc2ccco2)cc1Oc1ccccc1
- Activity (Canis familiaris [16]): 0.39 milliequivalent/kg
- Activity (Canis familiaris [17]): 1.7 milliequivalent/kg
- Activity (Canis familiaris [18]): 2 milliequivalent/kg
- Activity (Canis familiaris [15]): 14 mL/kg

Compound: CS(=O)(=O)c1cc(C(=O)O)cc(NCc2ccccc2)c1C(=O)c1ccccc1
- Activity (Canis familiaris [26]): 3.9 milliequivalent/kg
- Activity (Canis familiaris [22]): 1.2 milliequivalent/kg
- Activity (Canis familiaris [23]): 0.28 milliequivalent/kg
- Activity (Canis familiaris [24]): 12 mL/kg
- Activity (Canis familiaris [27]): 33 mL/kg
- Activity (Canis familiaris [25]): 1.7 milliequivalent/kg
- Activity (Canis familiaris [28]): 4.7 milliequivalent/kg
- Activity (Canis familiaris [29]): 0.64 milliequivalent/kg

Compound: CS(=O)(=O)c1cc(C(=O)O)cc(NCc2ccccc2)c1Sc1ccccc1
- Activity (Canis familiaris [16]): 0.28 milliequivalent/kg
- Activity (Canis familiaris [17]): 2 milliequivalent/kg
- Activity (Canis familiaris [18]): 2.4 milliequivalent/kg
- Activity (Canis familiaris [19]): 0.9 milliequivalent/kg
- Activity (Canis familiaris [15]): 17 mL/kg
- Activity (Canis familiaris [1]): 6 mL/kg
- Activity (Canis familiaris [20]): 0.18 milliequivalent/kg
- Activity (Canis familiaris [21]): 1 milliequivalent/kg

Compound: CS(=O)(=O)c1cc(C(=O)O)cc(OCc2ccccc2)c1C(=O)c1ccccc1
- Activity (Canis familiaris [22]): 1.2 milliequivalent/kg
- Activity (Canis familiaris [23]): 0.25 milliequivalent/kg
- Activity (Canis familiaris [24]): 11 mL/kg
- Activity (Canis familiaris [25]): 1.7 milliequivalent/kg

Compound: CS(=O)(=O)c1cc(C(=O)O)c(NCc2ccccc2)cc1Nc1ccccc1
- Activity (Canis familiaris [6]): inactive

Compound: CS(=O)(=O)c1cc(C(=O)O)cc(SCc2ccccc2)c1Sc1ccccc1
- Activity (Canis familiaris [27]; Canis lupus familiaris): inactive

Compound: C[S+]([O-])c1cc(C(=O)O)cc(NCc2ccccc2)c1Oc1ccccc1 (configuration not stated)
- Activity (Canis familiaris [16]): 0.17 milliequivalent/kg
- Activity (Canis familiaris [17]): 0.9 milliequivalent/kg
- Activity (Canis familiaris [18]): 1.1 milliequivalent/kg
- Activity (Canis familiaris [15]): 7 mL/kg

Compound: CCCCNc1cc(C(=O)O)cc2c1C(c1ccccc1)=CS2(=O)=O
- Activity (Canis familiaris [15]; Canis lupus familiaris): inactive
